pIC50: −log10 of the molar value.
target: Factor D (Homo sapiens (Human), UniProt P00746); test: Factor D esterolytic assay (Z-Lys-SBzl substrate, DTNB, 405 nm); format: biochemical; settings: Z-Lys-SBzl 1.29 mM, pH 7.5, 10% DMSO, tested a minimum of three times, read-out: Measured Ki (IC50) Value for Compounds: IC50
In short: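 Thioester hydrolysis (Z-Lys-SBzl, 1.29 mM) by human Factor D ([…]) detected through DTNB color at 405 nm over 600 sec, minus 690 nm background. Buffer: 100 mM HEPES pH 7.5, 500 mM NaCl, 10% DMSO; optional room-temperature preincubation before substrate. IC50 derived from percent rate inhibition; at least three runs.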

Factor D, sequence (P00746 26-253): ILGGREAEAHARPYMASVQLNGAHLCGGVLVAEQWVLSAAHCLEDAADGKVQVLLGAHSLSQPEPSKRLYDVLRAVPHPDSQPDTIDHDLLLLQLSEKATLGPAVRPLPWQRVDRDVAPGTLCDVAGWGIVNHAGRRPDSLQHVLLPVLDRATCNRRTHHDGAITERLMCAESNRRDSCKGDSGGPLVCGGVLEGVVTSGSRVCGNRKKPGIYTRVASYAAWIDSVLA

SMILES | pIC50
NCc1cccc(-c2cc(COc3ccccc3CC(=O)O)cc3cc(CN4CCOCC4)oc23)c1 [Compound 139c, 2-(2-((7-(3-(aminomethyl)phenyl)-2-(morpholinomethyl)benzofuran-5-yl)methoxy)phenyl)acetic acid] | > 6.00
NCc1cccc(-c2cc(COc3ccccc3CC(=O)O)cc3cc(Cn4ccnc4)oc23)c1 [Compound 140c, 2-(2-((2-((1H-imidazol-1-yl)methyl)-7-(3-(aminomethyl)phenyl)benzofuran-5-yl)methoxy)phenyl)acetic acid] | > 6.00
CN(C)Cc1cc2cc(COc3ccccc3CC(=O)O)cc(-c3cccc(CN)c3)c2o1 [Compound 141c, 2-(2-((7-(3-(aminomethyl)phenyl)-2-((dimethylamino)methyl)benzofuran-5-yl)methoxy)phenyl)acetic acid] | > 6.00
NCc1cccc(-c2nc(C(=O)Nc3cscc3CC(=O)O)c3cccn3n2)c1F [Compound 142d, 2-(4-(2-(3-(aminomethyl)-2-fluorophenyl)pyrrolo[2,1-f][1,2,4]triazine-4-carboxamido)thiophen-3-yl)acetic acid] | > 6.00
NCc1cccc(-c2nc(C(=O)Nc3ccoc3CC(=O)O)c3cccn3n2)c1F [Compound 143g, 2-(3-(2-(3-(aminomethyl)-2-fluorophenyl)pyrrolo[2,1-f][1,2,4]triazine-4-carboxamido)furan-2-yl)acetic acid] | < 5.00
NCc1cccc(-c2nc(C(=O)Nc3ccsc3CC(=O)O)c3cccn3n2)c1F [Compound 144d, 2-(3-(2-(3-(aminomethyl)-2-fluorophenyl)pyrrolo[2,1-f][1,2,4]triazine-4-carboxamido)thiophen-2-yl)acetic acid] | > 6.00
NCc1cccc(-c2nc(C(=O)Nc3cscc3CC(=O)O)cc3ccoc23)c1 [Compound 145c, 2-(4-(7-(3-(aminomethyl)phenyl)furo[2,3-c]pyridine-5-carboxamido)thiophen-3-yl)acetic acid] | > 6.00
Cc1ccc(S(=O)(=O)n2ccc3cc(COc4ccccc4CC(=O)O)cc(-c4cccc(CN)c4)c32)cc1 [Compound 146g, 2-(2-((7-(3-(aminomethyl)phenyl)-1-tosyl-1H-indol-5-yl)methoxy)phenyl)acetic acid] | 5.00 to 6.00
NCc1cccc(-c2nc(C(=O)Nc3ccsc3CC(=O)O)cc3ccoc23)c1 [Compound 147c, 2-(3-(7-(3-(aminomethyl)phenyl)furo[2,3-c]pyridine-5-carboxamido)thiophen-2-yl)acetic acid] | > 6.00
NCc1cccc(-c2cc(COc3ccccc3CC(=O)O)cc3c2ccn3CC2CC2)c1 [Compound 148e, 2-(2-((4-(3-(aminomethyl)phenyl)-1-(cyclopropylmethyl)-1H-indol-6-yl)methoxy)phenyl)acetic acid] | > 6.00
NCc1cccc(-c2cc(COc3ccccc3CC(=O)O)cc3c2ccn3CC2CC2)c1F [Compound 149b, 2-(2-((4-(3-(aminomethyl)-2-fluorophenyl)-1-(cyclopropylmethyl)-1H-indol-6-yl)methoxy)phenyl)acetic acid] | > 6.00
Cn1ccc2c(-c3ccnc(CN)c3F)cc(COc3ccccc3CC(=O)O)cc21 [Compound 150b, 2-(2-((4-(2-(aminomethyl)-3-fluoropyridin-4-yl)-1-methyl-1H-indol-6-yl)methoxy)phenyl)acetic acid] | > 6.00
Cn1ncc2c(-c3ccnc(CN)c3F)cc(COc3ccccc3CC(=O)O)cc21 [Compound 151c, 2-(2-((4-(2-(aminomethyl)-3-fluoropyridin-4-yl)-1-methyl-1H-indazol-6-yl)methoxy)phenyl)acetic acid] | > 6.00
NCc1cccc(-c2cc(CNc3ccccc3CC(=O)O)cc3ccoc23)c1F [Compound 152d, lithium 2-(2-(((7-(3-(aminomethyl)-2-fluorophenyl)benzofuran-5-yl)methyl)amino)phenyl)acetate] | > 6.00
NCc1cccc(-c2cc(CNc3ccccc3CC(=O)O)cc3ccoc23)c1 [Compound 153b, lithium 2-(2-(((7-(3-(aminomethyl)phenyl)benzofuran-5-yl)methyl)amino)phenyl)acetate] | > 6.00
NCc1cccc(-c2cc(COc3ccccc3CC(=O)O)cc3c(C(F)(F)F)coc23)c1 [Compound 154g, 2-(2-((7-(3-(aminomethyl)phenyl)-3-(trifluoromethyl)benzofuran-5-yl)methoxy)phenyl)acetic acid] | > 6.00
NCc1cc(-c2cc(COc3ccccc3CC(=O)O)cc3c2ccn3CC2CC2)ccn1 [Compound 155c, 2-(2-((4-(2-(aminomethyl)pyridin-4-yl)-1-(cyclopropylmethyl)-1H-indol-6-yl)methoxy)phenyl)acetic acid] | > 6.00
NCc1cccc(-c2cc(COc3ccccc3CC(=O)O)cc3[nH]ncc23)c1 [Compound 156b, 2-(2-((4-(3-(aminomethyl)phenyl)-1H-indazol-6-yl)methoxy)phenyl)acetic acid] | > 6.00
NCc1cccc(-c2nc(C(=O)Nc3cccnc3CC(=O)O)c3cccn3n2)c1 [Compound 157d, 2-(3-(2-(3-(aminomethyl)phenyl)pyrrolo[2,1-f][1,2,4]triazine-4-carboxamido)pyridin-2-yl)acetic acid] | < 5.00

SMILES | pIC50
NCc1cccc(-c2cc(C(=O)Nc3ccccc3CC(=O)O)cc3cc[nH]c23)c1 [Compound 158c, 2-(2-(7-(3-(aminomethyl)phenyl)-1H-indole-5-carboxamido)phenyl)acetic acid] | 5.00 to 6.00
NCc1cccc(-c2cc(COc3ccccc3CC(=O)O)cc3nncn23)c1 [Compound 159f, 2-(2-((5-(3-(aminomethyl)phenyl)-[1,2,4]triazolo[4,3-a]pyridin-7-yl)methoxy)phenyl)acetic acid] | 5.00 to 6.00
NCc1cccc(-c2cc(C(=O)Nc3ccccc3CC(=O)O)cc3c2CCC3)c1 [Compound 160e, 2-(2-(7-(3-(aminomethyl)phenyl)-2,3-dihydro-1H-indene-5-carboxamido)phenyl)acetic acid] | > 6.00
Cc1ccc2c(C(=O)Nc3ccccc3CC(=O)O)nc(-c3cccc(CN)c3F)nn12 [Compound 161e, 2-(2-(2-(3-(aminomethyl)-2-fluorophenyl)-7-methylpyrrolo[2,1-f][1,2,4]triazine-4-carboxamido)phenyl)acetic acid] | > 6.00
Cc1ccc(OCc2cc(-c3cccc(CN)c3)c3occc3c2)c(CC(=O)O)c1 [Compound 162e, 2-(2-((7-(3-(aminomethyl)phenyl)benzofuran-5-yl)methoxy)-5-methylphenyl)acetic acid] | > 6.00
NCc1cccc(-c2cc(COc3ccncc3CC(=O)O)cc3ccoc23)c1 [Compound 163d, 2-(4-((7-(3-(aminomethyl)phenyl)benzofuran-5-yl)methoxy)pyridin-3-yl)acetic acid] | > 6.00
NCc1cccc(-c2cc(COc3ccccc3CC(=O)O)cc3nn(CC4CC4)cc23)c1F [Compound 164e, 2-(2-((4-(3-(aminomethyl)-2-fluorophenyl)-2-(cyclopropylmethyl)-2H-indazol-6-yl)methoxy)phenyl)acetic acid] | > 6.00
Cc1cccc(CC(=O)O)c1NC(=O)c1cc(-c2cccc(CN)c2)c2occc2c1 [Compound 165f, 2-(2-(7-(3-(aminomethyl)phenyl)benzofuran-5-carboxamido)-3-methylphenyl)acetic acid] | > 6.00
NCc1cccc(-c2cc(COc3ccccc3CC(=O)O)cc3nc[nH]c23)c1 [Compound 167e, 2-(2-((7-(3-(aminomethyl)phenyl)-1H-benzo[d]imidazol-5-yl)methoxy)phenyl)acetic acid] | > 6.00
NCc1cc(-c2cc(COc3ccccc3CC(=O)O)nc3ccoc23)ccn1 [Compound 168c, 2-(2-((7-(2-(aminomethyl)pyridin-4-yl)furo[3,2-b]pyridin-5-yl)methoxy)phenyl)acetic acid] | > 6.00
NCc1cccc(-c2cc(COc3ccccc3CC(=O)O)cc3cc(Cl)oc23)c1 [Compound 169f, 2-(2-((7-(3-(aminomethyl)phenyl)-2-chlorobenzofuran-5-yl)methoxy)phenyl)acetic acid] | > 6.00
NCc1nccc(-c2cc(COc3ccccc3CC(=O)O)cc3c2ccn3CC2CC2)c1F [Compound 170b, 2-(2-((4-(2-(aminomethyl)-3-fluoropyridin-4-yl)-1-(cyclopropylmethyl)-1H-indol-6-yl)methoxy)phenyl)acetic acid] | > 6.00
NCc1nccc(-c2cc(COc3ccccc3CC(=O)O)c(F)c3ccoc23)c1F [Compound 171c, 2-(2-((7-(2-(aminomethyl)-3-fluoropyridin-4-yl)-4-fluorobenzofuran-5-yl)methoxy)phenyl)acetic acid] | > 6.00
NCc1cc(-c2cc(COc3ccccc3CC(=O)O)c(F)c3ccoc23)ccn1 [Compound 172b, 2-(2-((7-(2-(aminomethyl)pyridin-4-yl)-4-fluorobenzofuran-5-yl)methoxy)phenyl)acetic acid] | > 6.00
NCc1cccc(-c2cc(COc3ccccc3CC(=O)O)cc3c(C(F)(F)F)coc23)c1F [Compound 173b, 2-(2-((7-(3-(aminomethyl)-2-fluorophenyl)-3-(trifluoromethyl)benzofuran-5-yl)methoxy)phenyl)acetic acid] | > 6.00
NCc1nccc(-c2cc(COc3ccccc3CC(=O)O)cc3occc23)c1F [Compound 174c, 2-(2-((4-(2-(aminomethyl)-3-fluoropyridin-4-yl)benzofuran-6-yl)methoxy)phenyl)acetic acid] | > 6.00
NCc1cc(-c2cc(COc3ccccc3CC(=O)O)cc3c(C(F)(F)F)coc23)ccn1 [Compound 175c, 2-(2-((7-(2-(aminomethyl)pyridin-4-yl)-3-(trifluoromethyl)benzofuran-5-yl)methoxy)phenyl)acetic acid] | > 6.00
Nc1n[nH]c2c(-c3cc(COc4ccccc4CC(=O)O)cc4ccoc34)cccc12 [Compound 176c, 2-(2-((7-(3-amino-1H-indazol-7-yl)benzofuran-5-yl)methoxy)phenyl)acetic acid] | 5.00 to 6.00
